Laboratory results from patent US20250144067A1, “PERSONALIZED STARVATION THERAPY FOR CANCER” (Faeth Therapeutics, Inc., priority 2021, published 2025).
Where a name gives a salt, the structure may show the parent alone. Read-outs that look alike come from different tables or passages of the source.

Experiments:
[1] = test system: NCI-H292 lung cancer cells; assay: FDA drug screening, complete media vs cholesterol-free media without statin (TABLE 1); assay type: cell-based, human
[2] = test system: NCI-H292 lung cancer cells; assay: FDA drug screening, complete media vs cholesterol-free media with simvastatin (TABLE 2); assay type: cell-based, human
[3] = Complete minus Cholesterol-free, […]
[4] = NCI-H292 cells, cholesterol-free media without statin, FDA drug library screen
[5] = NCI-H292 cells, complete media, FDA drug library screen
[6] = NCI-H292 cells, cholesterol-free media with simvastatin 0.04 μM, FDA drug library screen (TABLE 2)
[7] = NCI-H292 cells, complete media, FDA drug library screen (TABLE 2)
[8] = complete media minus cholesterol-free media + simvastatin (0.04 μM), […]
[9] = NCI-H292 cells, cholesterol-free media without statin
[10] = complete vs cholesterol-free media, greater than 0 enhanced anti-cancer activity, about 0 neutral, below 0 antagonists
[11] = NCI-H292 cells, cholesterol-free media with simvastatin 0.04 μM, cell growth value in FDA drug screen
[12] = NCI-H292 cells, complete media, cell growth value in FDA drug screen
[13] = complete media minus cholesterol-free media + simvastatin, >0 enhanced anti-cancer activity, about 0 neutral, <0 antagonist
[14] = Complete minus Cholesterol-free, >0 enhanced anti-cancer activity, about 0 neutral, <0 antagonist
[15] = NCI-H292 cells, FDA library drug in cholesterol-free media with simvastatin 0.04 μM
[16] = NCI-H292 cells, FDA library drug in complete media
[17] = complete media vs cholesterol-free media + simvastatin (0.04 μM), >0 enhanced anti-cancer activity, about 0 neutral, <0 antagonist
[18] = NCI-H292 cells, FDA drug library screen, cholesterol-free media with simvastatin 0.04 μM
[19] = NCI-H292 cells, FDA drug library screen, complete media
[20] = complete vs cholesterol-free media, […]
[21] = NCI-H292 cells, drug in cholesterol-free media with simvastatin 0.04 μM
[22] = NCI-H292 cells, drug in complete media
[23] = Complete minus Cholesterol-free, greater than 0 enhanced anti-cancer activity, about 0 neutral, below 0 antagonist
[24] = NCI-H292 cells, FDA drug library screen, cholesterol-free media without statin
[25] = NCI-H292 cells in cholesterol-free media without statin
[26] = NCI-H292 cells in complete media
[27] = complete media vs cholesterol-free media + simvastatin (0.04 μM), […]
[28] = Complete minus Cholesterol-free, greater than 0 enhanced anti-cancer activity, about 0 neutral, below 0 antagonists
[29] = complete media minus cholesterol-free media + simvastatin (0.04 μM), >0 enhanced anti-cancer activity, about 0 neutral, <0 antagonist

Compound: COc1cc(S(=O)(=O)[O-])ccc1O.[K+] [Sulfogaiacol]
- Difference [1, 3]: −0.01
- Cholesterol-free [1, 4]: 0.8896
- Complete [1, 5]: 0.8811
- Cholesterol-free media + simvastatin (0.04 μM) [2, 6]: 0.9781
- Complete Media [2, 7]: 0.9488
- Difference [2, 8]: −0.03

Compound: CCCc1nc(C)c2c(=O)[nH]c(-c3cc(S(=O)(=O)N4CCN(CC)CC4)ccc3OCC)nn12 [Vardenafil (hydrochloride)]
- Cholesterol-free [1, 9]: 1.352
- Complete ([1]; NCI-H292 cells, complete media): 0.985
- Difference [1, 10]: −0.37
- Cholesterol-free media + simvastatin (0.04 μM) [2, 11]: 1.201
- Complete Media [2, 12]: 1.248
- Difference [2, 13]: 0.05

Compound: CNC(=O)c1c(I)c(NC(C)=O)c(I)c(C(=O)O)c1I [Iotalamic acid]
- Difference [1, 14]: −0.29
- Cholesterol-free [1, 9]: 1.385
- Complete ([1]; NCI-H292 cells, complete media): 1.091
- Cholesterol-free media + simvastatin (0.04 μM) [2, 15]: 1.459
- Complete Media [2, 16]: 0.9854
- Difference [2, 17]: −0.47

Compound: Lefamulin (acetate)
- Difference [1, 3]: −0.23
- Cholesterol-free [1, 9]: 1.096
- Complete ([1]; NCI-H292 cells, complete media): 0.8619
- Cholesterol-free media + simvastatin (0.04 μM) [2, 18]: 1.429
- Complete Media [2, 19]: 1.575
- Difference ([2]; complete media minus cholesterol-free media + simvastatin, […]): 0.15

Compound: Cc1c(O)cccc1C(=O)N[C@@H](CSc1ccccc1)[C@H](O)CN1C[C@H]2CCCC[C@H]2C[C@H]1C(=O)NC(C)(C)C [Nelfinavir]
- Difference [1, 14]: −0.25
- Cholesterol-free [1, 9]: 1.095
- Complete ([1]; NCI-H292 cells, complete media): 0.8463
- Cholesterol-free media + simvastatin (0.04 μM) [2, 15]: 1.243
- Complete Media [2, 16]: 0.8828
- Difference [2, 17]: −0.36

Compound: Cc1ccc(C(=O)Nc2ccc(CN3CCN(C)CC3)c(C(F)(F)F)c2)cc1C#Cc1cnc2cccnn12 [Ponatinib]
- Cholesterol-free [1]: 0.1141
- Complete [1]: 0.07529
- Difference [1]: −0.04
- Cholesterol-free media + simvastatin (0.04 μM) [2]: 0.4683
- Complete Media [2]: 0.4064
- Difference [2]: −0.06

Compound: OC(CCN1CCCCC1)(c1ccccc1)C1CC2C=CC1C2 (centres unmarked) [Biperiden (Hydrochloride)]
- Cholesterol-free [1, 4]: 1.12
- Complete [1, 5]: 1.311
- Difference ([1]; complete vs cholesterol-free media, >0 enhanced anti-cancer activity, about 0 neutral, <0 antagonist): 0.19
- Cholesterol-free media + simvastatin (0.04 μM) [2, 18]: 0.8257
- Complete Media [2, 19]: 1.742
- Difference [2, 13]: 0.92

Compound: Rivastigmine (tartrate)
- Cholesterol-free [1, 9]: 1.242
- Complete ([1]; NCI-H292 cells, complete media): 0.9137
- Difference [1, 20]: −0.33
- Cholesterol-free media + simvastatin (0.04 μM) [2, 6]: 1.478
- Complete Media [2, 7]: 1.417
- Difference [2, 8]: −0.06

Compound: Gadopentetate (dimeglumine)
- Difference [1, 3]: −0.06
- Cholesterol-free [1, 4]: 1.132
- Complete Media [2, 7]: 1.1
- Difference [2, 8]: −0.05

Compound: CN(C)CC(c1ccc(O)cc1)C1(O)CCCCC1 (centres unmarked) [Desvenlafaxine]
- Cholesterol-free [1, 9]: 1.158
- Complete ([1]; NCI-H292 cells, complete media): 0.8309
- Difference [1, 10]: −0.33
- Cholesterol-free media + simvastatin (0.04 μM) [2, 11]: 1.047
- Complete Media [2, 12]: 1.102
- Difference [2, 13]: 0.05

Compound: CN(C)C(=O)Oc1cccc([N+](C)(C)C)c1.[Br-] [Neostigmine (Bromide)]
- Cholesterol-free [1]: 1.008
- Complete [1]: 0.8252
- Difference [1]: −0.18
- Cholesterol-free media + simvastatin (0.04 μM) [2]: 0.9188
- Complete Media [2]: 1.066
- Difference [2]: 0.15

Compound: CCOc1ccc2nc(SCCN3CCOCC3)[nH]c2c1 [Fabomotizole (hydrochloride)]
- Cholesterol-free [1, 9]: 1.463
- Complete ([1]; NCI-H292 cells, complete media): 1.068
- Difference [1, 10]: −0.39
- Cholesterol-free media + simvastatin (0.04 μM) [2, 21]: 1.167
- Complete Media [2, 22]: 0.9459
- Difference [2, 17]: −0.22

Compound: O=C1c2cccc3c2[C@H](CCC3)CN1[C@@H]1CN2CCC1CC2 [Palonosetron (Hydrochloride)]
- Cholesterol-free [1, 9]: 1.075
- Complete ([1]; NCI-H292 cells, complete media): 0.7009
- Difference [1, 10]: −0.37
- Cholesterol-free media + simvastatin (0.04 μM) [2, 21]: 1.184
- Complete Media [2, 22]: 0.927
- Difference [2, 17]: −0.26

Compound: O=C(O)CCCc1ccccc1 [4-Phenylbutyric acid]
- Difference [1, 23]: −0.13
- Cholesterol-free [1, 24]: 1.208
- Complete [1, 19]: 1.079
- Cholesterol-free media + simvastatin (0.04 μM) [2, 21]: 1.251
- Complete Media [2, 22]: 1.056
- Difference [2, 17]: −0.19

Compound: Ketotifen (fumarate)
- Difference [1, 3]: −0.71
- Cholesterol-free [1, 25]: 1.545
- Complete [1, 26]: 0.8394
- Cholesterol-free media + simvastatin (0.04 μM) [2, 15]: 1.876
- Complete Media [2, 16]: 1.552
- Difference [2, 27]: −0.32

Compound: COc1cc2nc(N3CCN(C(=O)c4ccco4)CC3)nc(N)c2cc1OC [Prazosin (hydrochloride)]
- Difference [1, 28]: −0.52
- Cholesterol-free [1, 25]: 1.627
- Complete [1, 26]: 1.105
- Cholesterol-free media + simvastatin (0.04 μM) [2, 18]: 1.23
- Complete Media [2, 19]: 1.079
- Difference [2, 17]: −0.15

Compound: Cc1[nH]c2ccccc2c1CCNCc1ccc(/C=C/C(=O)NO)cc1 [Panobinostat]
- Difference [1, 14]: −0.03
- Cholesterol-free [1, 4]: −0.004474
- Complete [1, 5]: −0.02997
- Cholesterol-free media + simvastatin (0.04 μM) [2, 6]: 0.008426
- Complete Media [2, 7]: −0.004725
- Difference [2, 29]: −0.01

Compound: C#Cc1cccc(Nc2ncnc3cc4c(cc23)OCCOCCOCCO4)c1 [Icotinib (Hydrochloride)]
- Difference [1, 14]: 0.05
- Cholesterol-free [1, 4]: 0.2697
- Complete [1, 5]: 0.324
- Cholesterol-free media + simvastatin (0.04 μM) [2, 6]: 0.5866
- Complete Media [2, 7]: 0.5343
- Difference [2, 29]: −0.05

Compound: Teprenone
- Cholesterol-free [1, 9]: 1.353
- Difference [1, 20]: −0.31
- Cholesterol-free media + simvastatin (0.04 μM) [2, 18]: 1.117
- Complete Media [2, 19]: 0.9777
- Difference [2, 27]: −0.14

Compound: CCCCC(=O)N(Cc1ccc(-c2ccccc2-c2nnn[nH]2)cc1)[C@H](C(=O)O)C(C)C [Valsartan]
- Difference [1, 23]: −0.09
- Cholesterol-free [1, 24]: 0.8984
- Complete [1, 19]: 0.8065
- Cholesterol-free media + simvastatin (0.04 μM) [2, 21]: 1.056
- Complete Media [2, 22]: 0.8568
- Difference [2, 17]: −0.20

Compound: CNC(=O)c1cc(Oc2ccc(NC(=O)Nc3ccc(Cl)c(C(F)(F)F)c3)c(F)c2)ccn1 [Regorafenib (Hydrochloride)]
- Difference [1, 14]: 0.04
- Cholesterol-free [1, 4]: 0.8297
- Complete [1, 5]: 0.8736
- Cholesterol-free media + simvastatin (0.04 μM) [2, 6]: 0.9433
- Complete Media [2, 7]: 0.9026
- Difference [2, 29]: −0.04

Compound: Cc1ccc(S(=O)(=O)NC(=O)NN2CCCCCC2)cc1 [Tolazamide]
- Difference [1, 28]: −0.50
- Cholesterol-free [1, 25]: 1.412
- Complete [1, 26]: 0.9106
- Cholesterol-free media + simvastatin (0.04 μM) [2, 11]: 1.047
- Complete Media [2, 12]: 1.177
- Difference [2, 13]: 0.13

Compound: CC(C)C(=O)Nc1ccc([N+](=O)[O-])c(C(F)(F)F)c1 [Flutamide]
- Difference [1, 14]: −0.27
- Cholesterol-free [1, 9]: 1.049
- Complete ([1]; NCI-H292 cells, complete media): 0.7826
- Cholesterol-free media + simvastatin (0.04 μM) [2, 6]: 0.8786
- Complete Media [2, 7]: 0.855
- Difference [2, 29]: −0.02

Compound: Bivalirudin (TFA)
- Cholesterol-free [1, 4]: 1.02
- Complete [1, 5]: 1.118
- Difference [1, 20]: 0.10
- Complete Media [2, 19]: 0.9368
- Difference [2, 27]: −0.13
